Results reported in patent publication US7087633B2, “Method for treating perinatal asphyxia in a human or animal neonate” (Universitair Medisch Centrum, priority 2000, dated 2006).
“Also recorded” adds a separate entry of the source.

How the values were obtained:
neonatal rats [1] = conditions: cited from earlier work
newborn piglets = conditions: cited from earlier work
[2] = test system: newborn Dutch store piglets subjected to HI; conditions: for piglets died post HI: ALLO n=10 (HI complications, 18 h), DFO n=10 (hypovolemic shock, 13 h), 2-IB n=7 (sepsis); for neurologic score / electrical brain activity (aEEG): 3 to 24 h post HI, versus PLAC, repeated ANOVA, all p<0.05
Description: Following anaesthesia and instrumentation 37 newborn Dutch store piglets (1–3 days old) were subjected to HI by occluding both common carotid arteries with inflatable cuffs and reducing the fraction of inspired oxygen for 60 min. MRS was performed continuously before, during and up to 3 h after start of HI and repeated at 24 h post HI. During hypoxia FiO2 was reduced>on-line=until PCr/Pi had decreased to at least 25% of baseline values. Immediately after HI the piglets received either placebo (PLAC; n=10), ALLO (20 mg/kg iv; n=10), DFO (10 mg/kg iv; n=10) or 2-IB (150 μM i.v.; n=7). Before HI and from 3 to 24 h post HI the piglets were monitored using aEEG for electrical brain activity determination. A neurologic scoring system was used ranging from 4 (normal) to 0 (flat trace). For 1H-MRS a PRESS sequence with CHESS water suppression was used to define a 1.7 ml periventricular voxel (TR 6 s, TE 144 ms, and nt=32 or 64). 31 P— MRS was done using a 4 cm-diameter surface coil for excitation and detection (TR 10 s, nt=32). Peak amplitudes of PCr, Pi, Lac and NAA were determined with time domain fitting procedures (VARPRO). Paired t-tests were used to compare measurements at 24 h versus baseline; repeated ANOVA served to monitor for trends between treatment groups.

[3] = test system: free radical-induced brain damage in newborns; conditions: pilot study in newborn babies and experimental studies; cited from earlier work
[4] = test system: brain regions at risk after HI (hippocampus, cortex, striatum and cerebellum); assay: Histological analysis and nitrotyrosylation immunohistochemistry of brain at 24 h post HI; type: in vivo, piglet
crossbred piglets = assay: Postnatal growth experiments in newborn piglets; type: in vivo, piglet
Description: A study in newborn piglets was performed to identify the potential effects of 2-iminobiotin on postnatal growth. Data from 138 crossbred piglets (originating from 28 litters) were collected on a commercial, Dutch pig farm over the period from 21 Jul. 2001 to 6 May 2003.

neonatal rats [5] = conditions: cited from earlier work; remark: listed apart in the source
neuronal NOS = conditions: injectable intraperitoneally; cited from earlier work
[6] = 24 h post HI versus baseline, ALLO 20 mg/kg iv, DFO 10 mg/kg iv, 2-IB 150 μM i.v.
[7] = Least Square Means, total 1.1 mg/kg in 24 h after birth, n=67
[8] = during the first 10 days of life, n=67

N=C(N)NN [aminoguanidine]
infarct volumes (neonatal rats [1]): reduced infarct volumes

N=C(NCCC[C@H](N)C(=O)O)N[N+](=O)[O-] [NNLA, N^G-nitro-L-arginine]
cerebral energy status during and after hypoxia-ischemia (newborn piglets): compromised

CC(=O)N(O)CCCCCNC(=O)CCC(=O)N(O)CCCCCNC(=O)CCC(=O)N(O)CCCCCN [DFO, deferoxamine, reference compound]
piglets died post HI [2]: 1 piglet

Oc1ncnc2[nH]ncc12 [ALLO, allopurinol, reference compound]
neurologic score / electrical brain activity (aEEG) [2]: significant difference
PCr/Pi (cerebral energy status) [2, 6]: prevented partly
piglets died post HI [2]: 1 piglet
free radical-induced brain damage in newborns [3]: reduce free radical-induced brain damage in newborns to some extend

N=C1N[C@H]2[C@H](CS[C@H]2CCCCC(=O)O)N1 [2-IB, 2-iminobiotin]
neurologic score / electrical brain activity (aEEG) [2]: significant difference; also recorded: preserved electrical brain activity
Lac/NAA [2, 6]: identical to baseline values; also recorded: prevented increment
PCr/Pi (cerebral energy status) [2, 6]: identical to baseline values; also recorded: preserved completely
piglets died post HI [2]: 1 piglet
more effective than treatment with allopurinol and/or deferoxamine ([2]; in vivo studies involving piglets, versus allopurinol and/or deferoxamine): about 25%
more effective than placebo treatment in preventing and/or treating the effects ([2]; in vivo studies involving piglets, versus placebo): about 60%
alive cells in brain regions at risk after HI ([4]; histology): more alive cells
necrosis ([4]; histology): less necrosis
structural architecture ([4]; histology): better preserved structural architecture
nitrotyrosylation staining in the affected areas ([4]; immunohistochemistry): no staining; also recorded: less nitrotyrosylation staining
Growth at 6 weeks (crossbred piglets; [7]): 250 gram/day
Growth at 10 days (crossbred piglets; [7]): 208 gram/day
Growth at weaning (crossbred piglets; [7]): 248 gram/day
piglets died (number) (crossbred piglets; [8]): 9 piglets
piglets died (percentage of group) (crossbred piglets; [8]): 13%
Pathology and histology: adverse effects of treatment (crossbred piglets; in vivo): no adverse effects

COC(=O)[C@@H](N)CCCNC(=N)N[N+](=O)[O-] [L-NAME, L-nitro-arginine methyl ester]
neuroprotection (neonatal rats [5]): neuroprotective

O=[N+]([O-])c1cccc2cn[nH]c12 [7-nitroindazole]
apoptosis (neuronal NOS): effective in reducing apoptosis
levels of citrulline (neuronal NOS): reducing the levels of citrulline
